Measurements taken from ChEMBL document CHEMBL6114977, “Identification and optimization of a small molecule inhibitor of the ovarian tumor protease of the Crimean-Congo hemorrhagic fever virus” (Bioorg Med Chem, 2025).
Activity calls are given as the source filed them. The calls are words filed in the database; no cut-off is given here.

How the values were obtained:
[1] = biological target: T1, RNA-directed RNA polymerase L (Crimean-Congo hemorrhagic fever virus, UniProt Q6TQR6); assay: (§1) Inhibition of CCHF OTU (ovarian tumor) protease (1 to 169 residues) extracted from Escherichia coli BL21 (DE3) cells using ubiquitin rhodamine 110 as substrate incubated for 30 mins by fluorescence based SynergyH1 plate reader analysis
T1 sequence (Q6TQR6 whole entry, the tested form may be a part): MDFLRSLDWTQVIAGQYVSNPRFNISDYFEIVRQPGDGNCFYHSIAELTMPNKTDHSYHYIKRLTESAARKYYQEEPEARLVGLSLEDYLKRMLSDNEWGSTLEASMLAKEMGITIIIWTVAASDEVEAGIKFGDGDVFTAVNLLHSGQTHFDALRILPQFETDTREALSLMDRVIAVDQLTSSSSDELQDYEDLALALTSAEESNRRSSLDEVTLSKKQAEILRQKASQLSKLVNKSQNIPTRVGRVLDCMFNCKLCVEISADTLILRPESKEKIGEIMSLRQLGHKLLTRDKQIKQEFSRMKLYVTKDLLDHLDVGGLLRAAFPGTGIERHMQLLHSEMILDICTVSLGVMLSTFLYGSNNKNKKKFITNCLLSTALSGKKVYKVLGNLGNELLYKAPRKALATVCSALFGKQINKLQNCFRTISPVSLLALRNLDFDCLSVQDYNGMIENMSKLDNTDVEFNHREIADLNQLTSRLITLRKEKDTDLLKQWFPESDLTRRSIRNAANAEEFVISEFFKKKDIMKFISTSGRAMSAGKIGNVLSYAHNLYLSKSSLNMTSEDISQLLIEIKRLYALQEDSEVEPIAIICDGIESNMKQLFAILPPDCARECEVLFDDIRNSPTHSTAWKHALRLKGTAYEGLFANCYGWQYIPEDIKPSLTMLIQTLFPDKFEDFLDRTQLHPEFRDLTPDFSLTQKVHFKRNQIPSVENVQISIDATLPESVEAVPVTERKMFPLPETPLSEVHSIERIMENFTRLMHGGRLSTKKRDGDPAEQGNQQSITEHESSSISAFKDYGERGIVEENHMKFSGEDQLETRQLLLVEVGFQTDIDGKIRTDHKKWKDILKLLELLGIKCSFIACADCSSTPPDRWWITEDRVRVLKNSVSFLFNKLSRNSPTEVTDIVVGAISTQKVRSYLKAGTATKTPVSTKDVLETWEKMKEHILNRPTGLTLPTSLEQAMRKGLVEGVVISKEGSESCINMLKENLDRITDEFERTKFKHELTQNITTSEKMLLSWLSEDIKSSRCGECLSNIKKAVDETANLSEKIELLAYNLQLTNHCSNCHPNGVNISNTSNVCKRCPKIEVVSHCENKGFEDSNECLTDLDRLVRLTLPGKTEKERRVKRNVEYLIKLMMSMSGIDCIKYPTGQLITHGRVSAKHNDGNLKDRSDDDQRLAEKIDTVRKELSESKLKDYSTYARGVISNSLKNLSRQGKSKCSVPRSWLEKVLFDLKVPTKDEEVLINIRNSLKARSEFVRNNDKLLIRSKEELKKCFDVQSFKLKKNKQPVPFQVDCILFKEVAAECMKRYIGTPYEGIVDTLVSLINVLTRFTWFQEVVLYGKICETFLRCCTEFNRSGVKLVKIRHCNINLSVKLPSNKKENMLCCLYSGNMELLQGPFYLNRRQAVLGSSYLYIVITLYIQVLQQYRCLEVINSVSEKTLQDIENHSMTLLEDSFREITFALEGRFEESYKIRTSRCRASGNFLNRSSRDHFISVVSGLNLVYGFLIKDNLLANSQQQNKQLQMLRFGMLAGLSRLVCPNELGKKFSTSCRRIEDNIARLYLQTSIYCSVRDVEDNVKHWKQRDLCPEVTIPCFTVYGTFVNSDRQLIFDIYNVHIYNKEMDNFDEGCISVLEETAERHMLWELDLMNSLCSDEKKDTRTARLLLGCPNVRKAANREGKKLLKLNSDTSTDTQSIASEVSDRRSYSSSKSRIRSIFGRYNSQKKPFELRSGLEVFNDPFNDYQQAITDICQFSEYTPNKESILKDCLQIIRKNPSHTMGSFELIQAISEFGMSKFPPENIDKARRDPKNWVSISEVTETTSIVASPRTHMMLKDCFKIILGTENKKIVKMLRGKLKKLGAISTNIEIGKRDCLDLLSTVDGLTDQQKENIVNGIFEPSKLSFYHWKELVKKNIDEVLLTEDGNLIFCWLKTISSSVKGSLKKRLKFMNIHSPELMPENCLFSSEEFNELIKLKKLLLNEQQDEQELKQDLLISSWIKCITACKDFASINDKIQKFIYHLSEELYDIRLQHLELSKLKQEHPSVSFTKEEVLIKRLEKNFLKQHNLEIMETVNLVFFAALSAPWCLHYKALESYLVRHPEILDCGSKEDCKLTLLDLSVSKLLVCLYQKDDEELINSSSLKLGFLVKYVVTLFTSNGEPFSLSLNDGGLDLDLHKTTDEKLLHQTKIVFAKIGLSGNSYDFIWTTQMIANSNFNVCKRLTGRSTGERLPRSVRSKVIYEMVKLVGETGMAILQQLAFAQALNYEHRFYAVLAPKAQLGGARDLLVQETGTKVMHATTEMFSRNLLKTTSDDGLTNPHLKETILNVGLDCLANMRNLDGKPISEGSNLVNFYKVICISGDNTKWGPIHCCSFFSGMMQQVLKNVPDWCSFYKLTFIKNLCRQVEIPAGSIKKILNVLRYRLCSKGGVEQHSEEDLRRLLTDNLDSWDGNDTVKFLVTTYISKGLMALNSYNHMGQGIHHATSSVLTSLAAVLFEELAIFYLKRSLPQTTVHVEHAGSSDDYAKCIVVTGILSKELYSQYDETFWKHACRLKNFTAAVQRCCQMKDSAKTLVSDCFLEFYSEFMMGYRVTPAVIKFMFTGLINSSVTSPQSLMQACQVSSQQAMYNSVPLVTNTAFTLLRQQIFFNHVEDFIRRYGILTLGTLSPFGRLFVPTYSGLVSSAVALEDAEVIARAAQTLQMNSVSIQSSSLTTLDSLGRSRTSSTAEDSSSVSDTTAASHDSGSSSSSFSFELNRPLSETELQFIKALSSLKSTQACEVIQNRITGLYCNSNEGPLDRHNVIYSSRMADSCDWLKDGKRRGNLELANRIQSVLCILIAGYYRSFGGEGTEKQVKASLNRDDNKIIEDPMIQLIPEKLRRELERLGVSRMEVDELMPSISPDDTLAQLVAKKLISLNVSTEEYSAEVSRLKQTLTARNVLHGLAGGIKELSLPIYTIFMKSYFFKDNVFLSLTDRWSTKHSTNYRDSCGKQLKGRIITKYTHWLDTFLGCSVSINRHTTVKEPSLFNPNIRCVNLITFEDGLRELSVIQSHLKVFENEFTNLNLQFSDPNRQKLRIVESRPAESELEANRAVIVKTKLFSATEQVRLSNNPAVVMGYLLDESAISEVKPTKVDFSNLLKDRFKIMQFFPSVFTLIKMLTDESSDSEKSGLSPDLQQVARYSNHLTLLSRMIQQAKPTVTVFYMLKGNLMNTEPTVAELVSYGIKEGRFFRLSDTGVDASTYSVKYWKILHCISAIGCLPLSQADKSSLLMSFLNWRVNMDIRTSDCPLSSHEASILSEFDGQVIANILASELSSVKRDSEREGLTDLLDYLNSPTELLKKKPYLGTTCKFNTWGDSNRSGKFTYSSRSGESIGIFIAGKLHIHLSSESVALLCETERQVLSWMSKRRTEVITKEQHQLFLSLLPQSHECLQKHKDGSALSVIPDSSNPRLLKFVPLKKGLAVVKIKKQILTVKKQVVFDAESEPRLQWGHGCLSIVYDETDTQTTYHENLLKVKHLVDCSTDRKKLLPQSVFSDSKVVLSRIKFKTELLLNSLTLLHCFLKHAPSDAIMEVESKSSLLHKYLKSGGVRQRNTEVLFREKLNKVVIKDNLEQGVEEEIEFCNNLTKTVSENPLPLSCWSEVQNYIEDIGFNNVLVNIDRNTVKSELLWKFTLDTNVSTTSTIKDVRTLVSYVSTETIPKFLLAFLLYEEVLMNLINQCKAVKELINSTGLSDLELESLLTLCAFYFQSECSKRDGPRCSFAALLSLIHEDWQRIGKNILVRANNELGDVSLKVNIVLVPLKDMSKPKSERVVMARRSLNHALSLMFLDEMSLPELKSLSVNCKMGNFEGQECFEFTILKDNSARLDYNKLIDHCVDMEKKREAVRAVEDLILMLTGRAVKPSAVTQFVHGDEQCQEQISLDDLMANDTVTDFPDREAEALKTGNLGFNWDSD

[2] = biological target: T1, RNA-directed RNA polymerase L; assay: Inhibition of CCHF OTU (ovarian tumor) protease (1 to 169 residues) extracted from Escherichia coli BL21 (DE3) cells assessed as inhibition constant by fluorescence based SynergyH1 plate reader analysis
[3] = biological target: Ubiquitin carboxyl-terminal hydrolase 7 (Homo sapiens) (UniProt Q93009); assay: Inhibition of human USP7 using ubiquitin rhodamine 110 as substrate at 50 uM incubated for 30 mins by fluorescence based SynergyH1 plate reader analysis
Ubiquitin carboxyl-terminal hydrolase 7 (Homo sapiens), sequence (Q93009 whole entry, looked up): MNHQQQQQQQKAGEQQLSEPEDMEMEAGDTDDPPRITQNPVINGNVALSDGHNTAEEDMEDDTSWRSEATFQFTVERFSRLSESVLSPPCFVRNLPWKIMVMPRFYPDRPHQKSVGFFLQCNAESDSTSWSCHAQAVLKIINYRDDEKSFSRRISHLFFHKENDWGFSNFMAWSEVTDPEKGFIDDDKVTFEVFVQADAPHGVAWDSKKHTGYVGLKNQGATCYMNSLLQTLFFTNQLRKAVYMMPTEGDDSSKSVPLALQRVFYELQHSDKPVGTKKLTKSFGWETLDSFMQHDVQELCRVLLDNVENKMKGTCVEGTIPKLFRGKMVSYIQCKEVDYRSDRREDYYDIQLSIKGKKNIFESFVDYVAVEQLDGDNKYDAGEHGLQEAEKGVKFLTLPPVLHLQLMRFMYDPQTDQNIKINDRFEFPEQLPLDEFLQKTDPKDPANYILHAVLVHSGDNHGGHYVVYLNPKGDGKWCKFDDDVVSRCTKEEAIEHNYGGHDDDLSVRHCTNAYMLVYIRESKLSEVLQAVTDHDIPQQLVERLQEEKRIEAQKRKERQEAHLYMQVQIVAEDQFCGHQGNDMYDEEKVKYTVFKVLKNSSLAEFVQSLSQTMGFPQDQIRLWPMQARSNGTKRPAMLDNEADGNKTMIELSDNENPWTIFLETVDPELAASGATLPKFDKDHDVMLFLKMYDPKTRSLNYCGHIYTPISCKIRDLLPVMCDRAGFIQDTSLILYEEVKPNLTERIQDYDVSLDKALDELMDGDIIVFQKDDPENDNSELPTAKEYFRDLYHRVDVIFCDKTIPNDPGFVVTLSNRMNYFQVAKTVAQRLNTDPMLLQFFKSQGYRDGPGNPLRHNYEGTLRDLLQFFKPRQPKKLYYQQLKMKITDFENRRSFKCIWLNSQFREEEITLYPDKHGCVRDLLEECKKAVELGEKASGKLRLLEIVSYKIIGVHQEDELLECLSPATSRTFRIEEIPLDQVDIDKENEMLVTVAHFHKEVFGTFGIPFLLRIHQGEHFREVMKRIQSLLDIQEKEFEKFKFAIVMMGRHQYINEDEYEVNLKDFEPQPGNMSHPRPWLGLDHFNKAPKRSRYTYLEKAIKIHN

[4] = biological target: T2, Ubiquitin carboxyl-terminal hydrolase isozyme L5 (Homo sapiens) (UniProt Q9Y5K5); assay: Inhibition of human UCHL5 using ubiquitin rhodamine 110 as substrate at 50 uM incubated for 30 mins by fluorescence based SynergyH1 plate reader analysis
T2 sequence (whole entry): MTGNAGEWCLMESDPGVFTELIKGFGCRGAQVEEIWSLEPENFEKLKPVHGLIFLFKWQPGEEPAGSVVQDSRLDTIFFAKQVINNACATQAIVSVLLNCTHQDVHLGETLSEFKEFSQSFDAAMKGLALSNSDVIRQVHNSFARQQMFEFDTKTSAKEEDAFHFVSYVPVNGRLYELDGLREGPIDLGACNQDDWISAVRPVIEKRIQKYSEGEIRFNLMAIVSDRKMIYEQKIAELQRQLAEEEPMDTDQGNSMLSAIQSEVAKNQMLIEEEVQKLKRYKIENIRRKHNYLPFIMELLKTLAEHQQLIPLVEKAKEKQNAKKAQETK

[5] = biological target: T3, OTU domain-containing protein 1 (Homo sapiens) (UniProt Q5VV17); assay: Inhibition of human OTUD1 using ubiquitin rhodamine 110 as substrate at 50 uM incubated for 30 mins by fluorescence based SynergyH1 plate reader analysis
T3 sequence (whole entry): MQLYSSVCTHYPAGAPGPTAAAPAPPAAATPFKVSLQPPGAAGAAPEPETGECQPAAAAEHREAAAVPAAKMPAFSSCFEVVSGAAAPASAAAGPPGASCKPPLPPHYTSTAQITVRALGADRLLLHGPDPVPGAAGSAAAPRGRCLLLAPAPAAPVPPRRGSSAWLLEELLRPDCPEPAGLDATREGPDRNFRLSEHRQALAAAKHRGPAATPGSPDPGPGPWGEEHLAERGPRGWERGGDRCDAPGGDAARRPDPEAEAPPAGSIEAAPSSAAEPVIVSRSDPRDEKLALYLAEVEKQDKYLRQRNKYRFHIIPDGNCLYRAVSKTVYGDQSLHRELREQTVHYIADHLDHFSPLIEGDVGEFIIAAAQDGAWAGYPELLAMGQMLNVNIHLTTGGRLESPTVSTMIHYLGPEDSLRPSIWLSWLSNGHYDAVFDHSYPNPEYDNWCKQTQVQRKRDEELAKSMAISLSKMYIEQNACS

[6] = biological target: T4, OTU domain-containing protein 7B (Homo sapiens) (UniProt Q6GQQ9); assay: Inhibition of human cezanne using ubiquitin rhodamine 110 as substrate at 50 uM incubated for 30 mins by fluorescence based SynergyH1 plate reader analysis
T4 sequence (whole entry): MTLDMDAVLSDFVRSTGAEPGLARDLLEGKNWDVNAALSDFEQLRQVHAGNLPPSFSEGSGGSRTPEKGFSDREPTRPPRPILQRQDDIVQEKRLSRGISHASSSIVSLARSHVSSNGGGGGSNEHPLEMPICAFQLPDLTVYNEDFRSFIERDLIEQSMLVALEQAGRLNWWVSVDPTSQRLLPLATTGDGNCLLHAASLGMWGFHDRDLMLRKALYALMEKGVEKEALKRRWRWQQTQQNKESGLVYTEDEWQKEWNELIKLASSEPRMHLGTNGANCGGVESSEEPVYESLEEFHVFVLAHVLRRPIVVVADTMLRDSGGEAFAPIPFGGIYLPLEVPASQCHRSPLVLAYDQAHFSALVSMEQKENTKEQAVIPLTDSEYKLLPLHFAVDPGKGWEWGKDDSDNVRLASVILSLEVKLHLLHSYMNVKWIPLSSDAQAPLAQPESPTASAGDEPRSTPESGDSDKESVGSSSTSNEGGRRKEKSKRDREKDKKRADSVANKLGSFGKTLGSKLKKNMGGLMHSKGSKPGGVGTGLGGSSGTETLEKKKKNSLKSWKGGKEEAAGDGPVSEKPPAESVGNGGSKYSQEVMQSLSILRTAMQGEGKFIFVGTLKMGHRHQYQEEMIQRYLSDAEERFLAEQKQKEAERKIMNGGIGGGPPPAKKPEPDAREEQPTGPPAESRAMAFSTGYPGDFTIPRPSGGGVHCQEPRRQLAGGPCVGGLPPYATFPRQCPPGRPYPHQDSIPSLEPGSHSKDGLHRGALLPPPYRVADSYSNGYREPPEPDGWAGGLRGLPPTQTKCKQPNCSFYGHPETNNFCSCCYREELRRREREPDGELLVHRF

[7] = test system: Fc1cc(Nc2nc(-c3ccc(C(F)(F)F)cc3)cs2)ccc1-c1nnn[nH]1; assay: Competitive inhibition of CCHF OTU (ovarian tumor) protease (1 to 169 residues) extracted from Escherichia coli BL21 (DE3) cells using ubiquitin rhodamine 110 as substrate assessed as Km by Michaelis-Menten analysis (reference value: 31.6 nM); conditions: Crimean-Congo hemorrhagic fever virus
[8] = biological target: RNA-directed RNA polymerase L (Crimean-Congo hemorrhagic fever virus) (UniProt Q6TQR6); assay: as §1

Row | Molecule | IC50 [1] [µM] | Ki [2] [µM] | other results
1 | Cc1cc(NS(=O)(=O)c2ccc(Nc3nc(-c4ccc(C#N)cc4)cs3)cc2)no1 | > 100 |  | 
2 | COc1cc(-c2nnn[nH]2)ccc1Nc1nc(-c2ccc(C(F)(F)F)cc2)cs1 | 29.8 | 18.2 | inhibition [3]: Active
3 | O=S(=O)(O)c1ccc(Nc2nc(-c3ccc(C(F)(F)F)cc3)cs2)cc1 | 41.8 | 25.6 | 
4 | Cc1cc(NS(=O)(=O)c2ccc(Nc3nc(-c4cccnc4)cs3)cc2)no1 | > 100 |  | 
5 | Cc1cc(NS(=O)(=O)c2ccc(Nc3nc(-c4ccccc4F)cs3)cc2)no1 | > 100 |  | 
6 | Cc1cc(NS(=O)(=O)c2ccc(Nc3nc(-c4ccccn4)cs3)cc2)no1 | > 100 |  | 
7 | COc1cccc(-c2csc(Nc3ccc(S(=O)(=O)Nc4cc(C)on4)cc3)n2)c1 | > 100 |  | 
8 | Cc1cc(NS(=O)(=O)c2ccc(Nc3nc(-c4ccc(O)cc4)cs3)cc2)no1 | > 100 |  | 
9 | Cc1cc(NS(=O)(=O)c2ccc(Nc3nc(-c4cccc(C(F)(F)F)c4)cs3)cc2)no1 | > 100 |  | 
10 | FC(F)(F)c1ccc(-c2csc(Nc3ccc(-c4nnn[nH]4)c(Cl)c3)n2)cc1 | 11.9 | 7.3 | inhibition [4]: Active; inhibition [5]: Active; inhibition [3]: Active; inhibition [6]: Active
11 | O=C(O)Cc1ccc(Nc2nc(-c3ccc(C(F)(F)F)cc3)cs2)cc1 | > 100 |  | 
12 | FC(F)(F)c1ccc(-c2coc(Nc3ccc(-c4nnn[nH]4)cc3)n2)cc1 | 18.2 | 11.1 | inhibition [3]: Active
13 | Cc1cc(NS(=O)(=O)c2ccc(Nc3nc(-c4cccc(F)c4)cs3)cc2)no1 | > 100 |  | 
14 | FC(F)(F)c1ccc(-c2csc(Nc3ccc(-c4nnn[nH]4)cn3)n2)cc1 | 18.2 | 11.1 | inhibition [3]: Active
15 | Cc1cc(-c2nnn[nH]2)ccc1Nc1nc(-c2ccc(C(F)(F)F)cc2)cs1 | 19.4 | 11.9 | inhibition [3]: Active
16 | Cc1cc(NS(=O)(=O)c2ccc(Nc3nc(-c4ccc(C(F)(F)F)cc4)cs3)cc2)no1 | 51 | 31.2 | 
17 | COc1ccc(-c2csc(Nc3ccc(S(=O)(=O)Nc4cc(C)on4)cc3)n2)cc1 | > 100 |  | 
18 | Cc1cc(NS(=O)(=O)c2ccc(Nc3nc(-c4ccccc4)cs3)cc2)no1 | > 100 |  | 
19 | O=C(O)c1ccc(Nc2nc(-c3ccc(C(F)(F)F)cc3)cs2)cc1 | > 50 |  | 
20 | FC(F)(F)c1ccc(-c2csc(Nc3ccc(-c4nnn[nH]4)cc3)n2)cc1 | 16.7 | 10.2 | inhibition [3]: Active

Row | Molecule | IC50 [1] [µM] | Ki [2] [µM] | other results
21 | RNA-directed RNA polymerase L (Crimean-Congo hemorrhagic fever virus), Q6TQR6 |  |  | Km [7]: 0.264 µM
22 | Cc1cc(NS(=O)(=O)c2ccc(Nc3nc(-c4ccc(F)cc4)cs3)cc2)no1 | 86 | 52.7 | 
23 | FC(F)(F)c1ccc(-c2csc(Nc3ccc(-n4cnnn4)cc3)n2)cc1 | > 100 |  | 
24 | FC(F)(F)c1ccc(-c2csc(Nc3ccc(-c4nnn[nH]4)nc3)n2)cc1 | > 100 |  | 
25 | FC(F)(F)c1ccc(-c2ccnc(Nc3ccc(-c4nnn[nH]4)cc3)n2)cc1 | 38.4 | 23.5 | inhibition [3]: Active
26 | Cc1cc(NS(=O)(=O)c2ccc(Nc3nc(-c4ccccc4Cl)cs3)cc2)no1 | > 100 |  | 
27 | Cc1cc(NS(=O)(=O)c2ccc(Nc3nc(-c4ccc(Cl)cc4)cs3)cc2)no1 | 62.9 | 38.5 | 
28 | Cc1cc(NS(=O)(=O)c2ccc(Nc3nc(-c4ccccc4C(F)(F)F)cs3)cc2)no1 | > 100 |  | 
29 | CN(c1ccc(-c2nnn[nH]2)cc1)c1nc(-c2ccc(C(F)(F)F)cc2)cs1 | 19 | 11.6 | 
30 | Cc1cc(NS(=O)(=O)c2ccc(Nc3nc(-c4ccc(Br)cc4)cs3)cc2)no1 | 54.3 | 33.2 | 
31 | Cc1cc(NS(=O)(=O)c2ccc(Nc3nc(-c4ccc(OC(F)(F)F)cc4)cs3)cc2)no1 | > 100 |  | 
32 | Cc1cc(NS(=O)(=O)c2ccc(Nc3nc(-c4ccc(O)cc4O)cs3)cc2)no1 | 42.3 | 25.9 | inhibition [8]: Dose-dependent-effect
33 | NS(=O)(=O)c1ccc(Nc2nc(-c3ccc(C(F)(F)F)cc3)cs2)cc1 | > 100 |  | 
34 | Cc1cc(Nc2nc(-c3ccc(C(F)(F)F)cc3)cs2)ccc1-c1nnn[nH]1 | 20 | 12.2 | 
35 | COc1ccccc1-c1csc(Nc2ccc(S(=O)(=O)Nc3cc(C)on3)cc2)n1 | > 100 |  | 
36 | N#Cc1ccc(Nc2nc(-c3ccc(C(F)(F)F)cc3)cs2)cc1 | > 100 |  | 
37 | FC(F)(F)c1ccc(-c2csc(Nc3ccc(-c4nnn[nH]4)c(C(F)(F)F)c3)n2)cc1 | 12.8 | 7.8 | inhibition [4]: Active; inhibition [5]: Active; inhibition [3]: Active; inhibition [6]: Active
38 | FC(F)(F)c1ccc(-c2csc(Nc3ccc(-c4nnn[nH]4)c4c3CCC4)n2)cc1 | 17.3 | 10.6 | inhibition [3]: Active
39 | Fc1cc(Nc2nc(-c3ccc(C(F)(F)F)cc3)cs2)ccc1-c1nnn[nH]1 | 10.7 | 6.6 | inhibition [4]: Active; inhibition [5]: Active; inhibition [3]: Active; inhibition [6]: Active
